Assay [1] deals with T1, Human CB1 receptor (Homo sapiens, UniProt P21554).
T1 construct: purchased Receptor Biology
The assay can be described thus: hCB1 receptor binding (3H-CP55,940 displacement). The following applies: hCB1 membranes, Ki=IC50/(1+[rad]/Kd). The method, then:
The total and non-specific binding are determined in the absence and presence of 0.2 μM of HU210 respectively. The plates are vortexed and incubated for 60 minutes at room temperature, filtered through Unifilters GF/B (presoaked in 0.1% polyethyleneimine) with the Tomtec or Packard harvester using 3 mL of wash buffer (50 mM Tris, 5 mM MgCl2, 0.5 mg BSA pH 7.0). The filters are dried for 1 hour at 55° C. The radioactivity (cpm) is counted in a TopCount (Packard) after adding 65 μl/well of MS-20 scintillation liquid.
Based on the above assays, the dissociation constant (Ki) for a particular compound of the invention towards a particular receptor is determined using the following equation:
[rad] is a standard or reference radioactive ligand concentration at that moment; and
Kd is the dissociation constant of the radioactive ligand towards the particular receptor.

For assay [2], the target named is T1, Human CB1 receptor. The assay can be described thus: hCB1 GTPγS binding. It counts as biochemical. The following applies: hCB1 membranes, GTPg35S binding; for Emax: maximal stimulation with 10 μM Win 55,212-2. The method, then:
Human CB1 receptor from Receptor Biology (hCB1) or human CB2 receptor membranes (BioSignal) are thawed at 37° C., passed 3 times through a 25-gauge blunt-end needle and diluted in the GTPγS binding buffer (50 mM Hepes, 20 mM NaOH, 100 mM NaCl, 1 mM EDTA, 5 mM MgCl2, pH 7.4, 0.1% BSA). […] The basal and maximal stimulated binding is determined in absence and presence of 1 μM (hCB2) or 10 μM (hCB1) Win 55,212-2 respectively. The membranes are pre-incubated for 5 minutes with 56.25 μM (hCB2) or 112.5 μM (hCB1) GDP prior to distribution in plates (15 μM (hCB2) or 30 μM (hCB1) GDP final). The plates are vortexed and incubated for 60 minutes at room temperature, filtered on Unifilters GF/B (presoaked in water) with the Tomtec or Packard harvester using 3 ml of wash buffer (50 mM Tris, 5 mM MgCl2, 50 mM NaCl, pH 7.0). The filters are dried for 1 hour at 55° C. The radioactivity (cpm) is counted in a TopCount (Packard) after adding 65 μl/well of MS-20 scintillation liquid. Antagonist reversal studies are done in the same way except that (a) an agonist dose-response curve is done in the presence of a constant concentration of antagonist, or (b) an antagonist dose-response curve is done in the presence of a constant concentration of agonist.
(Binding of GTPγS marks nucleotide exchange on a G protein.)

Structures are written as SMILES.

The Ki is the dissociation constant of the complex between target and ligand, obtained from inhibition or displacement. For orientation: EC50 means the concentration that produces a half-maximal response. A low value points to an effect from little substance. A word on the Emax: it is the maximal effect, on the per cent scale that the assay sets.

T1 sequence (P21554 whole entry): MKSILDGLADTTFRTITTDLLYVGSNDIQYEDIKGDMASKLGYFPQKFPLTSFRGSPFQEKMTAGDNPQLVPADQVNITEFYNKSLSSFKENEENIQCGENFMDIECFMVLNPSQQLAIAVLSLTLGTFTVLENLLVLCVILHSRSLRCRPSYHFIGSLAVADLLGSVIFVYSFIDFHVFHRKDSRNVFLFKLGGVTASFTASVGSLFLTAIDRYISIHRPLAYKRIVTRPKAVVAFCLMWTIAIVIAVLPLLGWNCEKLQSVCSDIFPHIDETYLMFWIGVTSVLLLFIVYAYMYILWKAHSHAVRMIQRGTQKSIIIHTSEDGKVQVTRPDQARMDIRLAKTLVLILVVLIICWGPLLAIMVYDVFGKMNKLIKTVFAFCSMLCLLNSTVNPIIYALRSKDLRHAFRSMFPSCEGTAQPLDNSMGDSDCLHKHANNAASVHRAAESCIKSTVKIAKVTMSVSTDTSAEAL

For the molecule `O=C(NCC1CCC1)c1cc(Cl)ccc1NC(=O)c1cccc2ccccc12` [Example 17, N-[4-Chloro-2-[[(cyclobutylmethyl)amino]carbonyl]phenyl]-1-naphthalenecarboxamide], in assay [1], the Ki came out at 7.3 nM. In assay [2], this molecule returned an EC50 of 41 nM and a maximal response (Emax) of 95%.
`O=C(NC1CCOCC1)c1cc(Cl)ccc1NC(=O)c1cccc2ccccc12` [Example 30, N-[4-Chloro-2-[[(tetrahydro-2H-pyran-4-yl)amino]carbonyl]phenyl]-1-naphthalenecarboxamide] displayed an inhibition constant (Ki) in assay [1] of 71 nM. In assay [2], this molecule yielded a 50% effective concentration (EC50) of 304 nM and an Emax of 109%.
In turn, `O=C(NCC1CCCCC1)c1c(O)cccc1NC(=O)c1cccc2ccccc12` [Example 49, N-[2-[[(Cyclohexylmethyl)amino]carbonyl]-3-hydroxyphenyl]-1-naphthalenecarboxamide] came in with a maximum response (Emax) in assay [2] of 109%.

The values above are taken from US20090018116A1, “Therapeutic Compounds” (ASTRAZENECA AB, priority 2004, published 2009).
